From patent US6737383B1, “Herbicidal oxadiazolidines” (priority 1999, dated 2004)

What was measured:
bedstraw = experiment: Test B pre/postemergence bedstraw; assay type: in vivo, Galium aparine; settings: Postemergence, Rate 31 g/ha; visual rating, scale 0 to 10 (0 no effect, 10 complete control)
In short: (§1)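 Test chemicals in a non-phytotoxic solvent mixture with surfactant were sprayed preemergence onto planted seeds and postemergence onto plants 2 to 18 cm tall (1- to 4-leaf stage). After twelve to sixteen days in a greenhouse, injury was visually rated against untreated controls from 0 (no effect) to 10 (complete control).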

surinam grass = experiment: Test B pre/postemergence surinam grass; assay type: in vivo, Brachiaria decumbens; settings: for Plant response rating, B. signalgrass: scale of 0 to 10 where 0 is no effect and 10 is complete control
In short: as §1

cocklebur = experiment: Test B pre/postemergence cocklebur; assay type: in vivo, Xanthium strumarium; settings: for Plant response rating, Cocklebur: scale of 0 to 10 where 0 is no effect and 10 is complete control
In short: as §1

corn = experiment: Test B pre/postemergence corn; assay type: in vivo, Zea mays; settings: for Plant response rating, Corn: scale of 0 to 10 where 0 is no effect and 10 is complete control
In short: as §1

giant foxtail = experiment: Test B pre/postemergence giant foxtail; assay type: in vivo, Setaria faberii; settings: for Plant response rating, Giant foxtail: scale of 0 to 10 where 0 is no effect and 10 is complete control
In short: as §1

pigweed = experiment: Test B pre/postemergence pigweed; assay type: in vivo, Amaranthus retroflexus; settings: for Plant response rating, Redroot pigweed: scale of 0 to 10 where 0 is no effect and 10 is complete control
In short: as §1

rape = experiment: Test B pre/postemergence rape; assay type: in vivo, Brassica napus; settings: for Plant response rating, Rape: scale of 0 to 10 where 0 is no effect and 10 is complete control
In short: as §1

soybean = experiment: Test B pre/postemergence soybean; assay type: in vivo, Glycine max; settings: for Plant response rating, Soybean: scale of 0 to 10 where 0 is no effect and 10 is complete control
In short: as §1

sugar beet = experiment: Test B pre/postemergence sugar beet; assay type: in vivo, Beta vulgaris; settings: for Plant response rating, Sugarbeets: scale of 0 to 10 where 0 is no effect and 10 is complete control
In short: as §1

velvetleaf = experiment: Test B pre/postemergence velvetleaf; assay type: in vivo, Abutilon theophrasti; settings: for Plant response rating, Velvetleaf: scale of 0 to 10 where 0 is no effect and 10 is complete control
In short: as §1

wheat = experiment: Test B pre/postemergence wheat; assay type: in vivo, Triticum aestivum; settings: for Plant response rating, Wheat: scale of 0 to 10 where 0 is no effect and 10 is complete control
In short: as §1

wild oat = experiment: Test B pre/postemergence wild oat; assay type: in vivo, Avena fatua; settings: for Plant response rating, Wild oats: scale of 0 to 10 where 0 is no effect and 10 is complete control
In short: as §1

purple nutsedge = experiment: Test B pre/postemergence purple nutsedge; assay type: in vivo, Cyperus rotundus; settings: for Plant response rating, Nutsedge: scale of 0 to 10 where 0 is no effect and 10 is complete control
In short: as §1

rice = experiment: Test B flood test rice; assay type: in vivo, Oryza sativa
In short: (§2)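 Plants were grown to the 2-leaf stage before treatment with test chemical, then held in a greenhouse for twelve to sixteen days. Injury was visually rated against untreated controls on a 0–10 scale, where 0 is no effect and 10 is complete control.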

smallflower flatsedge = experiment: Test B flood test smallflower flatsedge; assay type: in vivo, Cyperus difformis
In short: as §2

duck salad = experiment: Test B flood test duck salad; assay type: in vivo, Heteranthera limosa
In short: as §2

[1] = Postemergence, Rate 31 g/ha, visual rating, scale 0 to 10 (0 no effect, 10 complete control)
[2] = Preemergence, Rate 31 g/ha, visual rating, scale 0 to 10 (0 no effect, 10 complete control)
[3] = Preemergence, Rate 250 g/ha, scale 0 to 10, 0 is no effect, 10 is complete control
[4] = Rate 62 g/ha, Postemergence, scale 0 to 10 (0 no effect, 10 complete control)
[5] = Rate 125 g/ha, Postemergence, scale 0 to 10, 0 is no effect, 10 is complete control
[6] = Postemergence, Rate 250 g/ha, scale 0 to 10
[7] = Rate 31 g/ha, Pre-emergence section (flood test species), scale 0 to 10
[8] = Rate 62 g/ha, flood test species, Pre-emergence, visual evaluation after twelve to sixteen days
[9] = Rate 125 g/ha, under heading Pre-emergence, flood test species, visual evaluation after twelve to sixteen days
[10] = Rate 250 g/ha, Pre-emergence (flood test species), scale 0 to 10, 0 is no effect, 10 is complete control

CC(C)N(C(=O)n1oc(=O)n(CC2=NOCCC2)c1=O)c1ccc(Cl)cc1 [Compound 450]
8: Plant response rating, Giant foxtail (giant foxtail; Preemergence, Rate 125 g/ha)
3: B. signalgrass plant response rating (surinam grass; [3]) | Soybean plant response rating (soybean; [3])
5: Giant foxtail plant response rating (giant foxtail; [5])
Velvetleaf 0: Velvetleaf plant response rating (velvetleaf; [5])
0: Bedstraw plant response rating (bedstraw) | B. signalgrass plant response rating (surinam grass; [1]) | B. signalgrass plant response rating (surinam grass; Postemergence, Rate 250 g/ha, scale 0 to 10, 0 no effect, 10 complete control) | B. signalgrass plant response rating (surinam grass; [2]) | Plant response rating, B. signalgrass (surinam grass; Preemergence, Rate 62 g/ha) | B. signalgrass plant response rating (surinam grass; [4]) | B. signalgrass plant response rating (surinam grass; [5]) | Cocklebur plant response rating (cocklebur; [1]) | Cocklebur plant response rating (cocklebur; [6]) | Cocklebur plant response rating (cocklebur; [2]) | Plant response rating, Cocklebur (cocklebur; Preemergence, Rate 62 g/ha) | Plant response rating, Cocklebur (cocklebur; Preemergence, Rate 125 g/ha) | Cocklebur plant response rating (cocklebur; [3]) | Cocklebur plant response rating (cocklebur; [4]) | Cocklebur plant response rating (cocklebur; [5]) | Corn plant response rating (corn; [1]) | Corn plant response rating (corn; [6]) | Corn plant response rating (corn; [2]) | Plant response rating, Corn (corn; Preemergence, Rate 62 g/ha) | Plant response rating, Corn (corn; Preemergence, Rate 125 g/ha) | Corn plant response rating (corn; [3]) | Corn plant response rating (corn; [4]) | Corn plant response rating (corn; [5]) | Giant foxtail plant response rating (giant foxtail; [1]) | Giant foxtail plant response rating (giant foxtail; [2]) | Redroot pigweed plant response rating (pigweed; [1]) | Redroot pigweed plant response rating (pigweed; [6]) | Plant response rating, Redroot pigweed (pigweed; Preemergence, Rate 62 g/ha) | Redroot pigweed plant response rating (pigweed; [4]) | Redroot pigweed plant response rating (pigweed; [5]) | Rape plant response rating (rape; [1]) | Rape plant response rating (rape; [6]) | Plant response rating, Rape (rape; Preemergence, Rate 62 g/ha) | Plant response rating, Rape (rape; Preemergence, Rate 125 g/ha) | Rape plant response rating (rape; [3]) | Rape plant response rating (rape; [4]) | Rape plant response rating (rape; [5]) | Soybean plant response rating (soybean; [1]) | Plant response rating, Soybean (soybean; Preemergence, Rate 62 g/ha) | Plant response rating, Soybean (soybean; Preemergence, Rate 125 g/ha) | Sugarbeets plant response rating (sugar beet; [1]) | Sugarbeets plant response rating (sugar beet; [6]) | Plant response rating, Sugarbeets (sugar beet; Preemergence, Rate 62 g/ha) | Plant response rating, Sugarbeets (sugar beet; Preemergence, Rate 125 g/ha) | Sugarbeets plant response rating (sugar beet; [3]) | Sugarbeets plant response rating (sugar beet; [4]) | Sugarbeets plant response rating (sugar beet; [5]) | Velvetleaf plant response rating (velvetleaf; [1]) | Plant response rating, Velvetleaf (velvetleaf; Preemergence, Rate 62 g/ha) | Plant response rating, Velvetleaf (velvetleaf; Preemergence, Rate 125 g/ha) | Velvetleaf plant response rating (velvetleaf; [3]) | Velvetleaf plant response rating (velvetleaf; [4]) | Wheat plant response rating (wheat; [1]) | Wheat plant response rating (wheat; [6]) | Plant response rating, Wheat (wheat; Preemergence, Rate 62 g/ha) | Plant response rating, Wheat (wheat; Preemergence, Rate 125 g/ha) | Wheat plant response rating (wheat; [3]) | Wheat plant response rating (wheat; [4]) | Wheat plant response rating (wheat; [5]) | Wild oats plant response rating (wild oat; [1]) | Wild oats plant response rating (wild oat; [6]) | Plant response rating, Wild oats (wild oat; Preemergence, Rate 62 g/ha) | Plant response rating, Wild oats (wild oat; Preemergence, Rate 125 g/ha) | Wild oats plant response rating (wild oat; [3]) | Wild oats plant response rating (wild oat; [4]) | Wild oats plant response rating (wild oat; [5]) | Nutsedge plant response rating (purple nutsedge; [1]) | Nutsedge plant response rating (purple nutsedge; [6]) | Plant response rating, Nutsedge (purple nutsedge; Preemergence, Rate 62 g/ha) | Plant response rating, Nutsedge (purple nutsedge; Preemergence, Rate 125 g/ha) | Nutsedge plant response rating (purple nutsedge; [3]) | Nutsedge plant response rating (purple nutsedge; [4]) | Nutsedge plant response rating (purple nutsedge; [5]) | Rice plant response rating (rice; [7]) | Plant response rating, Rice (0 to 10 scale, 0 is no effect, 10 is complete control) (rice; [8]) | Rice plant response rating (0 to 10 scale, 0 is no effect, 10 is complete control) (rice; [9]) | Rice plant response rating (rice; [10]) | S. Flatsedge plant response rating (smallflower flatsedge; [7]) | Plant response rating, S. Flatsedge (0 to 10 scale, 0 is no effect, 10 is complete control) (smallflower flatsedge; [8]) | S. Flatsedge plant response rating (0 to 10 scale, 0 is no effect, 10 is complete control) (smallflower flatsedge; [9]) | S. Flatsedge plant response rating (smallflower flatsedge; [10]) | Ducksalad plant response rating (duck salad; [7]) | Plant response rating, Ducksalad (0 to 10 scale, 0 is no effect, 10 is complete control) (duck salad; [8]) | Ducksalad plant response rating (0 to 10 scale, 0 is no effect, 10 is complete control) (duck salad; [9]) | Ducksalad plant response rating (duck salad; [10])
1: Plant response rating, B. signalgrass (surinam grass; Preemergence, Rate 125 g/ha) | Soybean plant response rating (soybean; [6]) | Soybean plant response rating (soybean; [4]) | Soybean plant response rating (soybean; [5])
7: Giant foxtail plant response rating (giant foxtail; [6]) | Redroot pigweed plant response rating (pigweed; [3])
9: Giant foxtail plant response rating (giant foxtail; [3])
4: Plant response rating, Redroot pigweed (pigweed; Preemergence, Rate 125 g/ha)
2: Plant response rating, Giant foxtail (giant foxtail; Preemergence, Rate 62 g/ha) | Giant foxtail plant response rating (giant foxtail; [4]) | Velvetleaf plant response rating (velvetleaf; [6])
